Source: ChEMBL document CHEMBL1157341, “An antimalarial tetrapeptide from the entomopathogenic fungus Hirsutella sp. BCC 1528” (J Nat Prod, 2006)
Active and inactive are the calls of the source. No cut-off for these calls is given here.

Key:
Plasmodium falciparum = assay: Antimalarial activity against Plasmodium falciparum K1 infected human A+ erythrocytes by [3H]hypoxanthine uptake; assay type: functional, organism-based
Vero = assay: Cytotoxicity against african green monkey Vero cells by SRB assay; assay type: cell-based; settings: chlorocebus sabaeus
KB = assay: Cytotoxicity against human KB cells up to 38 uM by SRB assay; assay type: functional, cell-based
BC = assay: Cytotoxicity against human BC cells up to 38 uM by SRB assay; assay type: functional, cell-based
NCI-H187 = assay: Cytotoxicity against human NCI-H187 cells up to 38 uM by SRB assay; assay type: functional, cell-based

CC[C@@H](C)[C@H](N)C(=O)N(C)[C@H](Cc1ccccc1)C(=O)N[C@@H](CC(C)C)C(=O)Nc1ccccc1C(=O)O [HIRSUTELLIC ACID A]
IC50 (Plasmodium falciparum): 8 µM | Activity (Vero): Non-toxic | Activity (KB): inactive | Activity (BC): inactive | Activity (NCI-H187): inactive
